The test system of data set [1] is sfGFP^151(AXC). The data set can be described thus: In vivo translation screen of XTPs/YTPs: total sfGFP fluorescence. In kind it is cell-based, E. coli. The procedure:
(§1) In vivo Translation Screen of XTPs/YTPs. An overnight culture of the SSO strain ML2 carrying the pGEX-MbPylRS TetR plasmid was grown in 2×YT supplemented with 50 mM potassium phosphate, […] chloramphenicol and 100 μg/mL carbenicillin (herein referred to in this section as “media”), then diluted back to an OD600 of 0.03 in the same media and grown to an OD600 of 0.4 to 0.6. The culture was then chilled with shaking over ice-water for 15 minutes then pelleted by centrifugation at 3,200×g for 10 min. Cells were then resuspended and washed with ice-cold ddH2O twice then resuspended in ice-cold ddH2O to OD600 of 55-65. The electrocompetent cells (50 μL) and 1 ng of Golden Gate assembled plasmid with the UBP within the sfGFP and tRNAPyl genes (see Golden Gate Assembly of Plasmids) were transferred to a pre-chilled electroporation cuvette (0.2-cm-gap), then electroporated (Gene Pulser II; Bio-Rad) according to manufacturer's recommendations (voltage […], capacitor 2.5 μF, resistor 200Ω), and then immediately diluted with 950 μL of media. An aliquot (40 μL) of the transformation was then diluted five-fold in media supplemented with dCNMOTP (25 μM) and dTPT3TP (10 μM) for a final volume of 200 μL then allowed to recover for 1 h shaking at 37° C. Two-fold dilutions of the recovery were plated onto solid media supplemented with zeocin (50 μg/mL), dCNMOTP (10 μM), dTPT3TP (10 μM), and agar (2% w/v), then grown at 37° C. for 18 h. Single colonies were picked and grown in media (300 μL) supplemented with 50 μg/mL zeocin and provided dCNMOTP (25 μM) and dTPT3TP (10 μM) (herein afterward referred to in this section as “growth media”). The culture was monitored for cell growth (Envision 2103 Multilabel Plate Reader with a 590/20 nm filter) and then collected at an OD600˜1.0. An aliquot (50 μL) was subjected to plasmid isolation using the ZR Plasmid Prep Kit (Zymo Research). Isolated plasmids were then subjected to the streptavidin gel shift assay described below (using primers P3-4 and P5-6, Table S1) to determine UBP retention.
(§2) A colony with excellent UBP retention was then diluted to an OD600˜0.01 in growth media and grown to OD600˜0.4-0.6. This culture was then divided into multiple 300 μL cultures and for the screen of XTP analogs, each was provided with the corresponding XTP (at either 25 μM or 250 μM) or ddH2O for “−XTP” samples, TPT3TP (30 μM), and AzK (10 mM). For the screen of YTP analogs, each 300 μL culture was provided with the corresponding YTP (at either 25 μM or 250 μM) or ddH2O for “−YTP” samples, NaMTP (250 μM), and AzK (10 mM). Samples were shielded from light after addition of AzK to prevent photodegradation. These samples were then grown at 37° C. for 20 min before adding 1 mM IPTG and grown at 37° C. for an additional 1 h to induce T7 RNAP and transcription of tRNAPyl and PylRS. From this point on, cells were monitored for growth and fluorescence. Expression of sfGFP was then induced with anhydrotetracycline (100 ng/mL). After an additional 3 h of growth at 37° C., cells were collected (230 μL for affinity purification of sfGFP), cooled, and then pelleted and stored at −80° C. before protein purification.
An SAR analysis was initiated with NaMTP and the nine XTP analogs. Based on performance in the dXTP screen described above, and to eliminate variable loss at the DNA level as a complicating factor, the unnatural information was encoded with the dCNMO-dTPT3 UBP. Additionally, the E. coli strain ML2, which expresses the nucleoside triphosphate transporter PtNTT2, but has also been genetically engineered for higher fidelity replication of the UBP by deletion of the gene encoding RecA (as is common in cloning strains) and overexpression of DNA Pol II was used. The same plasmid described above in Examples 1A and 1, harboring sfGFP^151(AXC) and tRNA^Pyl(GYT), was used, and to focus the screen to a single unnatural ribonucleotide, the M. mazei Pyl tRNA was transcribed in the presence of 30 μM TPT3TP. […]

The test system of data set [2] is E. coli strain ML2. As to the kind of experiment: Cell growth (OD600) / toxicity of unnatural ribonucleoside triphosphates under ribonucleotide screening conditions. The format is cell-based. The following applies: for Cell growth / toxicity: YTP at the higher concentration (250 μM); for OD600: after 3 h of protein induction. The procedure: In vivo Translation Screen of XTPs/YTPs. An overnight culture of the SSO strain ML2 carrying the pGEX-MbPylRS TetR plasmid was grown in 2×YT supplemented with 50 mM potassium phosphate, […] chloramphenicol and 100 μg/mL carbenicillin (herein referred to in this section as “media”), then diluted back to an OD600 of 0.03 in the same media and grown to an OD600 of 0.4 to 0.6. The culture was then chilled with shaking over ice-water for 15 minutes then pelleted by centrifugation at 3,200×g for 10 min. Cells were then resuspended and washed with ice-cold ddH2O twice then resuspended in ice-cold ddH2O to OD600 of 55-65. The electrocompetent cells (50 μL) and 1 ng of Golden Gate assembled plasmid with the UBP within the sfGFP and tRNAPyl genes (see Golden Gate Assembly of Plasmids) were transferred to a pre-chilled electroporation cuvette (0.2-cm-gap), then electroporated (Gene Pulser II; Bio-Rad) according to manufacturer's recommendations (voltage […], capacitor 2.5 μF, resistor 200Ω), and then immediately diluted with 950 μL of media. […] Two-fold dilutions of the recovery were plated onto solid media supplemented with zeocin (50 μg/mL), dCNMOTP (10 μM), dTPT3TP (10 μM), and agar (2% w/v), then grown at 37° C. for 18 h. […] An aliquot (50 μL) was subjected to plasmid isolation using the ZR Plasmid Prep Kit (Zymo Research). Isolated plasmids were then subjected to the streptavidin gel shift assay described below (using primers P3-4 and P5-6, Table S1) to determine UBP retention.
Samples were shielded from light after addition of AzK to prevent photodegradation. These samples were then grown at 37° C. for 20 min before adding 1 mM IPTG and grown at 37° C. for an additional 1 h to induce T7 RNAP and transcription of tRNAPyl and PylRS. From this point on, cells were monitored for growth and fluorescence. Expression of sfGFP was then induced with anhydrotetracycline (100 ng/mL).
Examining the Toxicity of Ribonucleoside Triphosphates. An overnight culture of ML2 was grown in 2×YT media supplemented with 50 mM potassium phosphate and chloramphenicol (5 μg/mL), referred to throughout this section as “media”. This culture was diluted back to an OD600 of 0.01 split into multiple 300 μL cultures, each supplemented with varying concentrations of TPT3TP, TAT1TP, NaMTP, or 5FMTP, along with a no triphosphate control. The cultures were then incubated at 37° C. with shaking at 230 rpm. […] OD600 was then plotted as a function of time for each nucleotide at each concentration to visualize differences in growth rates.

The subject of data set [3] is sfGFP^151(AXC). The data set can be described thus: In vivo translation screen of XTPs/YTPs: protein shift (AzK incorporation) by DBCO-TAMRA western blot. The format is cell-based, E. coli. The following applies: XTP 250 μM; TPT3TP 30 μM; dCNMO-dTPT3 UBP; strain ML2. The procedure: as §1, §2
Affinity Purification of sfGFP. Cell pellets collected from translation experiments were resuspended in BugBuster (100 μL 1×, EMD Millipore) and shaken at room temperature for 15 min. […]

Entries after “also recorded” stand apart in the source; their conditions may differ.

`O=P(O)(O)OP(=O)(O)OP(=O)(O)OC[C@H]1O[C@@H](n2ccc3ccsc3c2=S)[C@H](O)[C@@H]1O` [TPT3TP]: in data set [1] (YTP 25 μM), the “Greater fluorescence than 5SICSTP” value was 6 fold, the “Greater fluorescence than FSICSTP” value worked out at 5 fold, the “Greater fluorescence than SICSTP” value is listed as 2 fold and the Protein production entry is on record as “significant quantities of pure protein”. Moreover, the “sfGFP fluorescence relative to control without YTP” value in data set [1] (YTP 250 μM, NaMTP 250 μM) was “little fluorescence”. Also, in data set [2] (YTP at lower concentrations (25 μM)), the Toxicity result is reported as “somewhat less toxic”. The “Cell growth / toxicity” value in data set [2] is recorded as “significantly reduced cell growth; also recorded: at least slightly toxic”.

As to `O=P(O)(O)OP(=O)(O)OP(=O)(O)OC[C@H]1O[C@@H](n2ccc3ccccc3c2=S)[C@H](O)[C@@H]1O` [SICSTP], the figures for the OD600 in data set [2] (YTP 25 μM) and in data set [2] (YTP 250 μM) were 1.25 ± 0.10 and 0.90 ± 0.04, respectively. Besides, the “Cell growth / toxicity” value in data set [2] was “at least slightly toxic”.

Turning to `COc1ccc(F)cc1[C@@H]1O[C@H](COP(=O)(O)OP(=O)(O)OP(=O)(O)O)[C@@H](O)[C@H]1O` [Compound 5F2OMeTP], the “sfGFP protein gel shift (ncAA incorporation)” value in data set [3] came out at 94%. Further, the results for the OD600 in data set [2] (XTP 25 μM) and in data set [2] (XTP 250 μM) were 1.14 ± 0.05 and 1.16 ± 0.07, respectively.

Source of the values: patent US11879145B2, “Reagents and methods for replication, transcription, and translation in semi-synthetic organisms” (The Scripps Research Institute, priority 2019, dated 2024).
